This passage reports IC50 results from BindingDB's records for doi:10.1021/jm701509k (Astrazeneca, 2008).

pIC50: −log10 of the molar value.

For orientation: pIC50 means −log10 of the IC50, conventionally taken in molar units.

The target of the assay is Hematopoietic prostaglandin D synthase (Homo sapiens, UniProt O60760). The assay is described as follows: In Vitro GST Activity Assay. Conditions: pH 7.2; 22 °C. As for the experimental part: The PGDS glutathione-S-transferase (GST) activity was measured by using MonoChloroBimane (MCB) as a chromogenic substrate. The assay was run at 384-well format in reaction buffer containing enzyme and test compound. Then MCB and GSH were added for further incubation. After reaction was stopped, the fluorescence was measured (excitation: 390 nm; emission: 478 nm).
Sequence of Hematopoietic prostaglandin D synthase (O60760 whole entry): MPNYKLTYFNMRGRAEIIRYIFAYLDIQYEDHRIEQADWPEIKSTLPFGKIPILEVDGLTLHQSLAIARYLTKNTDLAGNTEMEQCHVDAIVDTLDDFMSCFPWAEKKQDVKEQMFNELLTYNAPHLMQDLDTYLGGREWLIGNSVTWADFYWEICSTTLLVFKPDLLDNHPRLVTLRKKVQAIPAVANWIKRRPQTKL

In the case of `COc1ccc(-c2cc3c(nn2)-c2ccccc2C3=O)cc1`, the pIC50 is 5.42. `CCOC(=O)c1cc(OC)c(-c2ccccc2)nn1` [ethyl 5-methoxy-6-phenylpyridazine-3-carboxylate] gave a pIC50 of 4.35.
